Test results: patent US7985771B2, “Furanone derivatives” (Monsanto Technology LLC, priority 2002, dated 2011)

system: IL-1beta release from a mouse microglial cell line; test: Interleukin-1 beta microglial cell assay; assay type: cell-based; settings: LPS and IFN gamma stimulation, 24 hours, read-out: inhibition of IL-1beta induction, EC50
Method: This assay measures the release of IL-1β from a mouse microglial cell line following an inflammatory challenge with LPS and interferon-gamma. The ability of test articles to inhibit microglial cell activation and IL-1beta release is determined by co-incubation of the test article with the inflammatory challenge. Cytokine release is measured using a mouse IL-1β ELISA and cell toxicity is determined using Cell Tracker Green (a fluorescent dye that measures cell viability).
Mouse microglial cells were seeded in poly-D-lysine coated 96-well plates at a density of 10,000 cells/well and allowed to attach for 24 hours. Cells were stimulated by addition of LPS (10 μg/ml) and IFN gamma (10 ng/ml) in the presence or absence of test article. The cells were then incubated for 24 hours at 37° C., after which time the media was removed and used for cytokine determination as described below.
Viability of mouse microglial cells after exposure to the test article was determined using a fluorescent viability dye, Cell Tracker Green. Cell Tracker Green was used at a working concentration of 5 μM in 1× HBSS. Cells were washed once with HBSS (200 μl/well) and 100 μl Cell Tracker Green was added to each well. Cells were then incubated at 37° C. for 30 minutes, after which time the Cell Tracker was removed and the cells were washed once with HBSS (200 μl/well). 100 μl fresh HBSS was added to each well and the plate was read on a Fluoroskan plate reader using an excitation wavelength of 485 nm and an emission wavelength of 538 nm.
1. The IL-1β capture antibody was reconstituted in 1 ml of PBS to give a final concentration of 720 μg/ml, and the working concentration was 4 μg/ml. For coating one 96-well plate (at 100 μl/well) 56 μl of the 720 μg/ml stock was diluted into 10 ml of PBS. 2. The IL-1β standards were reconstituted in 0.5 ml of Reagent Diluent (70 ng/ml). For a high standard of 1 ng/ml (2 wells at 100 μl each+enough for series dilution) 7.1 μl of the 70 ng/ml standard were diluted into 0.5 ml of Reagent Diluent 3. The IL-1β detection antibody was reconstituted in 1 ml of Reagent Diluent to give a final concentration of 18 μg/ml and the working concentration is 100 ng/ml. For one 96-well plate (at 100 μl/well) 56 μl of the 18 μg/ml stock was diluted into 10 ml of Reagent Diluent.
1. The Costar EIA Hi-binding plate was coated with capture antibody at 4 μg/ml. Each well was coated with 100 μl, and the plate was sealed and incubated overnight at room temperature.
2. Each well was aspirated and washed 3× with Wash Buffer. Each well was filled to the top, dispensed, and any remaining buffer was removed by inverting the plate and gently blotting against clean paper towels.
3. Non-specific binding sites were blocked by adding 300 μl of Blocking Buffer to each well, and after sealing incubating for at least 1 hour at room temperature.
5. 100 μl of either standard or sample were added in each well of the capture-coated and pre-blocked plate. The plate was sealed and incubated for 2 hours at room temperature, followed with washing as in step 2.
6. 100 μl of the detection antibody ([…]) were added to each well.
7. The plate was sealed and incubated at room temperature for 2 hours, followed with washing as in step 2.
8. 100 μl of the working dilution of Streptavidin-HRP was added, and the plate was sealed and incubated in the dark for 20 minutes at room temperature, followed with washing as in Step 2.
9. The fresh Substrate Solution was prepared by mixing Color Reagent A (H2O2) and Color Reagent B (Tetramethylbenzidine) in a 1:1 ratio. 100 μl of this Substrate Solution mixture was added to each well and the plate was incubated in the dark for 20 minutes at room temperature. 10. 50 μl of Stop Solution was added to each well, mixing was ensured by gently tapping. 11. Each plate was read with the Spectramax once at 450 nm. Results

SMILES	EC50 [µM]
CCOC(=O)C1(CSCc2ccco2)OC(=O)C(OC(=O)C(C)C)=C1SCc1ccco1 (stereo not shown) [3-(Furan-2-ylmethylsulfanyl)-2-(furan-2-ylmethylsulfanylmethyl)-4-isobutyryloxy-5-oxo-2,5-dihydro-furan-2-carboxylic acid ethyl ester]	≤ 20
CCOC(=O)C1(CSc2nc3ccccc3[se]2)OC(=O)C(O)=C1Sc1nc2ccccc2[se]1 (stereo not shown) [3-(Benzoselenazol-2-ylsulfanyl)-2-(benzoselenazol-2-ylsulfanylmethyl)-4-hydroxy-5-oxo-2,5-dihydro-furan-2-carboxylic acid ethyl ester]	≤ 20
COC(=O)C1(CSc2nc3ccccc3s2)OC(=O)C(O)=C1Sc1nc2ccccc2o1 (stereo not shown) [3-(Benzooxazol-2-ylsulfanyl)-2-(benzothiazol-2-ylsulfanylmethyl)-4-hydroxy-5-oxo-2,5-dihydro-furan-2-carboxylic acid methyl ester]	≤ 20
CCOC(=O)C1(CSC2CCCCC2)OC(=O)C(O)=C1SC1CCCCC1 (stereo not shown) [3-Cyclohexylsulfanyl-2-cyclohexylsulfanylmethyl-4-hydroxy-5-oxo-2,5-dihydro-furan-2-carboxylic acid ethyl ester]	≤ 20
CCOC(=O)C1(CSCc2ccc(OC)cc2)OC(=O)C(O)=C1SCc1ccc(OC)cc1 (stereo not shown) [4-Hydroxy-3-(4-methoxy-benzylsulfanyl)-2-(4-methoxy-benzylsulfanylmethyl)-5-oxo-2,5-dihydro-furan-2-carboxylic acid ethyl ester]	≤ 20
CCOC(=O)C1(CSc2ncccn2)OC(=O)C(O)=C1Sc1ncccn1 (stereo not shown) [4-Hydroxy-5-oxo-3-(pyrimidin-2-ylsulfanyl)-2-(pyrimidin-2-ylsulfanylmethyl)-2,5-dihydro-furan-2-carboxylic acid ethyl ester]	≤ 20
CCCCSCC1(C(=O)OCC)OC(=O)C(O)=C1SCCCC (stereo not shown) [3-Butylsulfanyl-2-butylsulfanylmethyl-4-hydroxy-5-oxo-2,5-dihydro-furan-2-carboxylic acid ethyl ester]	≤ 20
CCOC(=O)C1(CSCc2ccco2)OC(=O)C(OC(=O)C(C)(C)C)=C1SCc1ccco1 (stereo not shown) [4-(2,2-Dimethyl-propionyloxy)-3-(furan-2-ylmethylsulfanyl)-2-(furan-2-ylmethylsulfanylmethyl)-5-oxo-2,5-dihydro-furan-2-carboxylic acid ethyl ester]	≤ 20
CCOC(=O)C1(CSc2nccc(C)n2)OC(=O)C(O)=C1Sc1nccc(C)n1 (stereo not shown) [4-Hydroxy-3-(4-methyl-pyrimidin-2-ylsulfanyl)-2-(4-methyl-pyrimidin-2-ylsulfanylmethyl)-5-oxo-2,5-dihydro-furan-2-carboxylic acid ethyl ester]	≤ 20
O=C1OC(CO)(CSc2nc3ccccc3o2)C(Sc2nc3ccccc3o2)=C1O (stereo not shown) [4-(Benzooxazol-2-ylsulfanyl)-5-(benzooxazol-2-ylsulfanylmethyl)-3-hydroxy-5-hydroxymethyl-5H-furan-2-one]	≤ 20
CCOC(=O)C1(CSCc2ccco2)OC(=O)C(O)=C1SCc1ccco1 (stereo not shown) [3-(Furan-2-ylmethylsulfanyl)-2-(furan-2-ylmethylsulfanylmethyl)-4-hydroxy-5-oxo-2,5-dihydro-furan-2-carboxylic acid ethyl ester]	≤ 20

system: ELAM (E-selectin) expression in endothelial cells; test: E-selectin (ELAM) cell inflammation assay; assay type: cell-based; settings: LPS and IL-1β stimulation, read-out: reduction of expression of ELAM, EC50
Method: Endothelial-Leukocyte Adhesion Molecule (ELAM), also known as E-selectin, is expressed on the surface of endothelial cells. In this assay, lipopolysaccharide (LPS) and IL-1β are used to stimulate the expression of ELAM; test agents are tested for their abilities to reduce this expression, in accordance with studies showing that reduction of leukocyte adhesion to endothelial cell surface is associated with decreased cellular damage (e.g., Takada, M., Et al., Transplantation 64: 1520-25, 1997; Steinberg, J. B., et al., J. Heart Lung Trans. 13:306-313, 1994).
Endothelial cells may be selected from any of a number of sources and cultured according to methods known in the art; including, for example, coronary artery endothelial cells, human brain microvascular endothelial cells (HBMEC; Hess, D.C., et al., Neurosci. Left. 213(1): 37-40, 1996), or lung endothelial cells. Cells are conveniently cultured in 96-well plates. Cells are stimulated by adding a solution to each well containing 10 μg/ml LPS and 100 pg/ml IL-1β for 6 hours in the presence of test agent (specific concentrations and time may be adjusted depending on the cell type). Treatment buffer is removed and replaced with pre-warmed Fixing Solution® (100 μl/well) for 25 minutes at room temperature. Cells are then washed 3×, then incubated with Blocking Buffer (PBS+2% FBS) for 25 minutes at room temperature. Blocking Buffer containing Monoclonal E-Selectin Antibody (1:750, Sigma Catalog #S-9555) is added to each well. Plates are sealed and stored at 4° overnight. Plates are washed 4× with 160 μL Blocking Buffer per well. Second Antibody-HRP diluted 1:5000 in Blocking Buffer is then added (100 μL/well), and plates are incubated at room temperature (protected from light) for two hours. Plates are then washed 4× with Blocking Buffer before addition of 100 μL of ABTS Substrate solution at room temperature (Zymed, Catalog #00-2024). Wells are allowed to develop for 35 minutes, before measurement at 402 nm in a Fluoroskan® Reader with shake program for 10 seconds. Positive results are recorded as a decrease in ELAM concentration in tested wells, as compared to control wells.

SMILES	EC50 [µM]
CCOC(=O)C1(CSCc2ccco2)OC(=O)C(OC(=O)C(C)C)=C1SCc1ccco1 (stereo not shown) [3-(Furan-2-ylmethylsulfanyl)-2-(furan-2-ylmethylsulfanylmethyl)-4-isobutyryloxy-5-oxo-2,5-dihydro-furan-2-carboxylic acid ethyl ester]	≤ 30
CCOC(=O)C1(CSc2nc3ccccc3[se]2)OC(=O)C(O)=C1Sc1nc2ccccc2[se]1 (stereo not shown) [3-(Benzoselenazol-2-ylsulfanyl)-2-(benzoselenazol-2-ylsulfanylmethyl)-4-hydroxy-5-oxo-2,5-dihydro-furan-2-carboxylic acid ethyl ester]	≤ 30
CCOC(=O)C1(CSC2CCCCC2)OC(=O)C(O)=C1SC1CCCCC1 (stereo not shown) [3-Cyclohexylsulfanyl-2-cyclohexylsulfanylmethyl-4-hydroxy-5-oxo-2,5-dihydro-furan-2-carboxylic acid ethyl ester]	≤ 30
O=C1NC(=O)C2(OC(=O)C(O)=C2Sc2nc3ccccc3[nH]2)C(=O)N1 [4-(1H-Benzoimidazol-2-ylsulfanyl)-3-hydroxy-1-oxa-7,9-diaza-spiro[4,5]dec-3-ene-2,6,8,10-tetraone]	≤ 30
CCOC(=O)C1(CSc2nc3cc(Cl)ccc3s2)OC(=O)C(O)=C1Sc1nc2cc(Cl)ccc2s1 (stereo not shown) [3-(5-Chloro-benzothiazol-2-ylsulfanyl)-2-(5-chloro-benzothiazol-2-ylsulfanylmethyl)-4-hydroxy-5-oxo-2,5-dihydro-furan-2-carboxylic acid ethyl ester]	≤ 30
CCOC(=O)[C@]1(CSCC(NC(=O)CCC(N)C(=O)O)C(=O)NCC(=O)O)OC(=O)C(O)=C1SCC(NC(=O)CCC(N)C(=O)O)C(=O)NCC(=O)O (stereo partly shown) [R-3-[2-(4-Amino-4-carboxy-butyrylamino)-2-(carboxymethyl-carbamoyl)-ethylsulfanyl]-2-[2-(4-amino-4-carboxy-butyrylamino)-2-(carboxymethyl-carbamoyl)ethylsulfanylmethyl]-4-hydroxy-5-oxo-2,5-dihydro-furan-2-carboxylic acid ethyl ester]	≤ 30
Cc1ccc2[nH]c(SC3=C(O)C(=O)OC3C(=O)OC3CC(C)CCC3C(C)C)nc2c1 (stereo not shown) [4-Hydroxy-3-(5-methyl-1H-benzoimidazol-2-ylsulfanyl)-5-oxo-2,5-dihydro-furan-2-carboxylic acid 2-isopropyl-5-methyl-cyclohexyl ester]	≤ 30
CCOC(=O)C1(CSCc2ccccc2)OC(=O)C(OC(C)=O)=C1SCc1ccccc1 (stereo not shown) [4-Acetoxy-3-benzylsulfanyl-2-benzylsulfanylmethyl-5-oxo-2,5-dihydro-furan-2-carboxylic acid ethyl ester]	≤ 30
CCOC(=O)C1(CSc2nc3ccccc3n2CC)OC(=O)C(OCC)=C1Sc1nc2ccccc2n1CC (stereo not shown) [4-Ethoxy-3-(1-ethyl-1H-benzoimidazol-2-ylsulfanyl)-2-(1-ethyl-1H-benzoimidazol-2-ylsulfanylmethyl)-5-oxo-2,5-dihydro-furan-2-carboxylic acid ethyl ester]	≤ 30
O=C1OC(CO)(CSc2nc3cc(S(=O)(=O)O)ccc3[nH]2)C(Sc2nc3cc(S(=O)(=O)O)ccc3[nH]2)=C1O (stereo not shown) [4-(5-sulfo-1H-benzoimidazol-2-ylsulfanyl)-5-(5-sulfo-1H-benzoimidazol-2-ylsulfanylmethyl)-3-hydroxy-5-hydroxymethyl-5H-furan-2-one]	≤ 30
CCOC(=O)C1(CSCc2ccco2)OC(=O)C(OC(C)=O)=C1SCc1ccco1 (stereo not shown) [4-Acetoxy-3-(furan-2-ylmethylsulfanyl)-2-(furan-2-ylmethylsulfanylmethyl)-5-oxo-2,5-dihydro-furan-2-carboxylic acid ethyl ester]	≤ 30
